Measured values: patent US20050164882A1, “Method for increasing the resistance of plants to the phytotoxicity of agrochemicals” (priority 2002, published 2005)

What was measured:
[1] = test system: Rice cv. “Koshihikari”; test: Effect on plant growth: plant height (stunting) of rice clumps after seedbox spray and transplanting into the field; format: in vivo; details: 200 g of active ingredient A per hectare; three weeks after the treatment
Description: Rice cv. “Koshihikari” was sown in a seedbox and grown for 24 days under controlled warm and moist conditions in controlled-environment cabinets and in the greenhouse. Two days before the rice was transplanted into the field, each of the seedboxes was sprayed to runoff point with preparations of the active ingredient in the concentrations mentioned hereinbelow in the form of an aqueous suspension made with a stock solution consisting of 10% active ingredient, 85% cyclohexanone and 5% emulsifier. The seedboxes were subsequently cultured in the greenhouse for a further 2 days until the rice was manually transplanted into the field at a rate of 5 clumps per m^2.
Three weeks after the treatment, the plant height of the rice clumps was measured and compared with untreated rice plants. The extent of plant stunting is a measure for the plant-damaging effect of substances on the root system.

[2] = test system: Echinochloa crus-galli (barnyardgrass, ECHCG); test: Greenhouse post-emergence phytotoxicity, barnyardgrass; format: in vivo; details: Table 2a, application rate 0.0039 kg/ha, scale 0 to 100
Description: (§1) The experimental period extended over 2 to 4 weeks.

[3] = test system: Oryza sativa (rice, ORYSA); test: Greenhouse post-emergence phytotoxicity, rice; details: Table 2a
Description: The active ingredients were prepared separately or jointly as a 10% emulsion in a mixture of 85% by weight of cyclohexanone, 5% by weight of Nekanil® LN (Lutensol® AP6, wetter with emulsifying and dispersing action based on ethoxylated alkylphenols) and 10% by weight of Wettol® EM (nonionic emulsifier based on ethoxylated castor oil) and diluted with water to give the desired concentration.
The culture containers used were plastic pots containing loamy sand with approximately 3.0% humus as substrate. The seeds of the test plants were sown separately for each species.
The test plants were grown separately as seedlings and transplanted into the experimental containers a few days before the treatment.
Depending on the species, the plants were kept at temperatures of from 10 to 25° C. or 20 to 35° C. The experimental period extended over 2 to 4 weeks. During this time, the plants were tended, and their response to the individual treatments was evaluated.
The phytotoxicity was evaluated using a scale of from 0 to 100. In this context, 100 means complete destruction of at least the aerial parts, and 0 means no damage or normal course of growth.

[4] = test system: Pharbitis purpurea (morningglory, PHBPU); test: Greenhouse post-emergence phytotoxicity, morningglory; format: in vivo; details: scale 0 to 100
Description: as §1

[5] = test system: Triticum aestivum (spring wheat, TRZAS); test: Greenhouse post-emergence phytotoxicity, spring wheat; format: in vivo; details: Table 2b, scale 0 to 100
Description: as §1

[6] = test system: Chenopodium album (pigweed, CHEAL); test: Greenhouse post-emergence phytotoxicity, pigweed; format: in vivo; details: Table 2b, application rate 0.0313 kg/ha, scale 0 to 100
Description: as §1

With C[C@H](Nc1c(-c2c(F)cc(F)cc2F)c(Cl)nc2ncnn12)C(F)(F)F [A, [5-chloro-6-(2,4,6-trifluorophenyl)-[1,2,4]triazolo[1,5-a]pyrimidin-7-yl]-((S)-2,2,2-trifluoro-1-methylethyl)amine] the “stunting (plant height compared with untreated rice plants)” value [1] was 15%.

For Cc1c(C(=O)c2cnn(C)c2O)ccc(S(C)(=O)=O)c1C1=NOCC1 [B, [3-(4,5-dihydroisoxazol-3-yl)-4-methane-sulfonyl-2-methylphenyl]-(5-hydroxy-1-methyl-1H-pyrazol-4-yl)-methanone], the “Pytotoxicity ECHCG” value [2] was 90 and the “Pytotoxicity ORYSA” value ([3]; application rate 0.0039 kg/ha, scale 0 (no damage) to 100 (complete destruction)) was 20.

FC(F)(F)c1ccc(-c2nccc(Oc3cccc(C(F)(F)F)c3)n2)cc1 [C, 4-(3-trifluoromethylphenoxy)-2-(4-trifluoromethylphenyl)pyrimidine] was tested, and the “Pytotoxicity PHBPU” value ([4]; Table 2a, application rate 0.0078 kg/ha) was 98, the “Pytotoxicity PHBPU” value ([4]; Table 2a, application rate 0.0156 kg/ha) was 98 and the “Pytotoxicity PHBPU” value ([4]; Table 2b, application rate 0.0078 kg/ha) was 98. The “Pytotoxicity PHBPU” value ([4]; Table 2b, application rate 0.0156 kg/ha) was 98, the “Pytotoxicity TRZAS” value ([5]; application rate 0.0078 kg/ha) was 20 and the “Pytotoxicity TRZAS” value ([5]; application rate 0.0156 kg/ha) was 25. The “Pytotoxicity TRZAS” value ([5]; application rate 0.0313 kg/ha) was 30, the “Pytotoxicity CHEAL” value [6] was 98 and the “Pytotoxicity ORYSA” value ([3]; application rate 0.0078 kg/ha, scale 0 to 100) was 10. The “Pytotoxicity ORYSA” value ([3]; application rate 0.0156 kg/ha, scale 0 to 100) was 10.
